# Laboratory results taken from article PMC10515483, “Structure–Reactivity Studies of 2-Sulfonylpyrimidines Allow Selective Protein Arylation” (Bioconjugate Chemistry, 2023).
# Assay: NACME arylation rate constant (NMR)
# Format: physicochemical
# Source text: We employed nuclear magnetic resonance (NMR) and UV–vis to quantify the reactivity of our 2-SP derivatives and other representative electrophiles (Figure 2) against cysteine. NMR allowed straightforward determination of reaction rate constants through dual monitoring of the consumption of the warhead and formation of the product by integration of their respective NMR signals (Figures S1–S3). It simultaneously provided a direct readout on reaction specificity and hydrolytic stability of the warhead. All measurements were carried out in KPi buffer in the presence of 5% d^6-dmso, which is generally well-tolerated by a wide range of proteins in in vitro studies. N-acetylcysteine methylester (NACME) and L-glutathione (GSH) are useful model cysteine nucleophiles for in vitro studies of electrophilic agents.[32] Mixing reference electrophile 2-methylsulfonylpyrimidine (4q) with NACME or GSH in a 1:10 ratio (pseudo-first-order conditions) allowed extraction of accurate and reproducible second order rate constants (k). At pH 7.0, quantitative arylation of NACME occurred […] (k ≈ 4.5 × 10^–2 M^–1 s^–1), whereas GSH reacted approximately 3 times slower (k ≈ 1.6 × 10^–2 M^–1 s^–1; Figures S1–S3). […]
# transferred to the NMR instrument for acquisition. 1H spectra (16 scans) were recorded every 10 minutes under water suppression conditions. Following acquisition, spectra were analysed using […]
structure (smiles),measurement,setting,value
"CS(=O)(=O)c1ncccn1 [4q, 2-methylsulfonylpyrimidine]",times faster at pH 7.0 vs 6.5,NACME,approximately 5 times
same,second order rate constant k with NACME,"pH 7.0, 1:10 ratio",≈ 4.5 × 10^–2 M^–1 s^–1
